In BindingDB's records for doi:10.1021/acs.jmedchem.8b00789 (Laval University, 2018):
pEC50: −log10 of the molar value.

Legend:
[1] = Antagonist activity at UT receptor in Sprague-Dawley rat thoracic aortic ring assessed as reduction in urotensin-2-induced contraction by measuring pEC50 for human urotensin-2-induced contraction at 1 uM pre-incubated for 30 mins before urotensin-2 stimulation (Rvb = 8.59 +/- 0.12 No_unit)
[2] = Antagonist activity at UT receptor in Sprague-Dawley rat thoracic aortic ring assessed as reduction in URP-induced contraction by measuring pEC50 for human urotensin-2-induced contraction at 1 uM pre-incubated for 30 mins before urotensin-2 stimulation (Rvb = 8.16 +/- 0.08 No_unit)
[3] = Antagonist activity at UT receptor in Sprague-Dawley rat thoracic aortic ring assessed as reduction in URP-induced contraction by measuring pEC50 for human urotensin-2-induced contraction at 1 x 10^-7M pre-incubated for 30 mins before urotensin-2 stimulation (Rvb = 8.16 +/- 0.08 No_unit)
[4] = Antagonist activity at UT receptor in Sprague-Dawley rat thoracic aortic ring assessed as reduction in urotensin-2-induced contraction by measuring pEC50 for human urotensin-2-induced contraction at 1 x 10^-7M uM pre-incubated for 30 mins before urotensin-2 stimulation (Rvb = 8.59 +/- 0.12 No_unit)
[5] = Antagonist activity at UT receptor in Sprague-Dawley rat thoracic aortic ring assessed as reduction in urotensin-2-induced contraction by measuring pEC50 for human urotensin-2-induced contraction at 1 x 10^-8M uM pre-incubated for 30 mins before urotensin-2 stimulation (Rvb = 8.59 +/- 0.12 No_unit)
[6] = Antagonist activity at UT receptor in Sprague-Dawley rat thoracic aortic ring assessed as reduction in URP-induced contraction by measuring pEC50 for human urotensin-2-induced contraction at 3 x 10^-10M pre-incubated for 30 mins before urotensin-2 stimulation (Rvb = 8.16 +/- 0.08 No_unit)

| pEC50 [1] | pEC50 [2] | pEC50 [3] | pEC50 [4] | pEC50 [5] | pEC50 [6] | SMILES |
| --- | --- | --- | --- | --- | --- | --- |
| 8.49 | 7.89 | – | – | – | – | CC(C)[C@H](NC(=O)[C@@H]1CSSC[C@H](NC(=O)[C@H](C)N)C(=O)N[C@H](Cc2ccc(I)cc2)C(=O)N[C@@H](Cc2c[nH]c3ccccc23)C(=O)N[C@@H](CCCCN)C(=O)N[C@@H](Cc2ccc(O)cc2)C(=O)N1)C(=O)O |
| 8.96 | 7.92 | – | – | – | – | CC(C)[C@H](NC(=O)[C@@H]1CSSC[C@H](NC(=O)[C@@H](N)CC(=O)O)C(=O)N[C@H](Cc2ccc(I)cc2)C(=O)N[C@@H](Cc2c[nH]c3ccccc23)C(=O)N[C@@H](CCCCN)C(=O)N[C@@H](Cc2ccc(O)cc2)C(=O)N1)C(=O)O |
| – | – | 6.95 | 7.77 | 8.14 | 7.46 | CC(C)[C@H](NC(=O)[C@@H]1CSSC[C@H](NC(=O)[C@H](C)N)C(=O)N[C@@H](Cc2ccc(-c3ccccc3)cc2)C(=O)N[C@@H](Cc2c[nH]c3ccccc23)C(=O)N[C@@H](CCCCN)C(=O)N[C@@H](Cc2ccc(O)cc2)C(=O)N1)C(=O)O |

Continued, compound first:

| SMILES | pEC50 [1] | pEC50 [2] | pEC50 [3] | pEC50 [4] | pEC50 [5] | pEC50 [6] |
| --- | --- | --- | --- | --- | --- | --- |
| CC(C)[C@H](NC(=O)[C@@H]1CSSC[C@H](NC(=O)[C@H](C)N)C(=O)N[C@H](Cc2ccc(-c3ccccc3)cc2)C(=O)N[C@@H](Cc2c[nH]c3ccccc23)C(=O)N[C@@H](CCCCN)C(=O)N[C@@H](Cc2ccc(O)cc2)C(=O)N1)C(=O)O | 8.17 | 8.55 | – | – | – | – |
| CC(C)[C@H](NC(=O)[C@@H]1CSSC[C@H](NC(=O)[C@H](C)N)C(=O)N[C@H](Cc2ccc(C#Cc3ccccc3)cc2)C(=O)N[C@@H](Cc2c[nH]c3ccccc23)C(=O)N[C@@H](CCCCN)C(=O)N[C@@H](Cc2ccc(O)cc2)C(=O)N1)C(=O)O | 8.27 | 7.74 | – | – | – | – |
